Our source for the ring closure, isolated yield values is patent US20250195521A1 (Revolution Medicines, Inc., priority 2020, published 2025).

Like-named read-outs stand apart in the source and are kept apart here.

The conditions of the series: 18-membered ring.

Turning to `CCn1c(-c2cccnc2[C@H](C)OC)c2c3cc(ccc31)-c1csc(n1)C[C@H](NC(=O)OC(C)(C)C)C(=O)N1CCC[C@H](N1)C(=O)OCC(C)(C)C2`, the ring closure, isolated yield (from CCn1c(-c2cccnc2[C@H](C)OC)c(CC(C)(C)CO)c2cc(-c3csc(C[C@H](NC(=O)OC(C)(C)C)C(=O)N4CCC[C@@H](C(=O)O)N4)n3)ccc21, ester bond, EDCI/HOBt/DIEA, DCM, 12.65 mM, 16.0 h) is 81.1%.
Molecule `CCn1c(-c2cccnc2[C@H](C)OC)c2c3cc(ccc31)-c1csc(n1)C[C@H](NC(=O)OC(C)(C)C)C(=O)N1CC[C@H](C)[C@H](N1)C(=O)OCC(C)(C)C2` showed a ring closure, isolated yield (from CCn1c(-c2cccnc2[C@H](C)OC)c(CC(C)(C)COC(=O)[C@H]2NN(C(=O)[C@H](Cc3nc(Br)cs3)NC(=O)OC(C)(C)C)CC[C@@H]2C)c2cc(B3OC(C)(C)C(C)(C)O3)ccc21, cc_pd bond, Pd(DtBPF)Cl2/K3PO4, dioxane/H2O 5:1, 17.5 mM, 60.0 °C, 1.0 h) of 44.7%.
As for `CCn1c(-c2cccnc2[C@H](C)OC)c2c3cc(ccc31)N1CCC[C@@H](C[C@H](NC(=O)OCc3ccccc3)C(=O)N3CCC[C@H](N3)C(=O)OCC(C)(C)C2)C1`, for the setting “from CCn1c(-c2cccnc2[C@H](C)OC)c(CC(C)(C)CO)c2cc(N3CCC[C@@H](C[C@H](NC(=O)OCc4ccccc4)C(=O)N4CCC[C@@H](C(=O)O)N4)C3)ccc21, ester bond, EDCI/HOBt/DIEA, DCM, 36.7 mM, 25.0 °C, 6.0 h”, the ring closure, isolated yield amounted to 36%.
Molecule “(2S,6S)—N-((6^3S,3S,4S,Z)-3-(2-(dimethylamino) ethoxy)-1^1-ethyl-1^2-(2-((S)-1-methoxyethyl) pyridin-3-yl)-10, 10-dimethyl-5,7-dioxo-6^1,6^2,6^3,6^4,6^5,6^6-hexahydro-1^1H-8-oxa-2 (4,2)-thiazola-1 (5,3)-indola-6 (1,3)-pyridazinacycloundecaphane-4-yl)-2,4,6-trimethylpiperazine-1-carboxamide” gave a ring closure, isolated yield (cc_pd bond, Pd(dtbpf)Cl2/K3PO4, toluene/1,4-dioxane/H2O 3:1:1, 57.0 mM, 60.0 °C) of 50%.
For “(6^3S,3S,4S,Z)-4-(dibenzylamino)-1^1-ethyl-3-methoxy-1^2-(2-((S)-1-methoxyethyl) pyridin-3-yl)-10, 10-dimethyl-6^1,6^2,6^3,6^4,6^5,6^6-hexahydro-1^1H-8-oxa-2 (4,2)-thiazola-1 (5,3)-indola-6 (1,3)-pyridazinacycloundecaphane-5,7-dione”, the ring closure, isolated yield (cc_pd bond, Pd(DtBPF)Cl2/K3PO4, dioxane/H2O 5:1, 40.0 mM, 80.0 °C) came out at 44.4%.
For the setting “cc_pd bond, Pd(DtBPF)Cl2/K3PO4, toluene/1,4-dioxane/H2O (3:1:1), […], 80.0 °C”, “(9H-fluoren-9-yl) methyl (1R,5S,7r)-7-(5-((6^3S,3S,4S,Z)-4-((tert-butoxycarbonyl) amino)-3-ethoxy-1^1-ethyl-10, 10-dimethyl-5,7-dioxo-6^1,6^2,6^3,6^4,6^5,6^6-hexahydro-1^1H-8-oxa-2 (4,2)-thiazola-1 (5,3)-indola-6 (1,3)-pyridazinacycloundecaphane-12-yl)-6-((S)-1-methoxyethyl) pyridin-3-yl)-3-oxa-9-azabicyclo[3.3.1]nonane-9-carboxylate” yielded a ring closure, isolated yield of 65%.
Consider “(9H-fluoren-9-yl) methyl ((6^3S,4S,Z)-3-(dimethylamino)-1^1-ethyl-1^2-(2-((S)-1-methoxyethyl) pyridin-3-yl)-10, 10-dimethyl-5,7-dioxo-6^1,6^2,6^3,6^4,6^5,6^6-hexahydro-1^1H-8-oxa-2 (4,2)-thiazola-1 (5,3)-indola-6 (1,3)-pyridazinacycloundecaphane-4-yl) carbamate”, for which the ring closure, isolated yield (cc_pd bond, Pd(dtbpf)Cl2/K3PO4, toluene/1,4-dioxane/H2O 3:1:1, 27.3 mM, 60.0 °C) was 19%.
Where the note is “cc_pd bond, Pd(dppf)Cl2.DCM/K3PO4, toluene/dioxane/H2O 3:1:1, 205.0 mM, 80.0 °C”, “(9H-fluoren-9-yl)methyl-7-(5-((6^3S,3S,4S,Z)-4-((tert-butoxycarbonyl) amino)-3-ethoxy-1^1-ethyl-10,10-dimethyl-5,7-dioxo-6^1,6^2,6^3,6^4,6^5,6^6-hexahydro-1^1H-8-oxa-2 (4,2)-thiazola-1 (5,3)-indola-6 (1,3)-pyridazinacycloundecaphane- 12-yl)-6-((S)-1-methoxyethyl) pyridin-3-yl)-3-oxa-9-azabicyclo[3.3.1] non-6-ene-9-carboxylate” came in with a ring closure, isolated yield of 49%.
Molecule “benzyl 4-(5-((3′S,3′S,4′S,Z)-4′-((tert-butoxycarbonyl) amino)-3′-ethoxy-1′-(2-isopropoxyethyl)-5′, 7′-dioxospiro[cyclopropane-1,10′-8-oxa-2 (4,2)-thiazola-1 (5,3)-indola-6 (1,3)-pyridazinacycloundecaphan]-2′-yl)-6-((S)-1-methoxyethyl) pyridin-3-yl) piperazine-1-carboxylate” displayed a ring closure, isolated yield (cc_pd bond, XPhos-Pd-G3/XPhos/K3PO4, toluene/1,4-dioxane/H2O 3:1:1, 28.0 mM, 65.0 °C) of 27%.
In turn, “benzyl 4-(5-((6^3S,3S,4S,Z)-4-((tert-butoxycarbonyl) amino)-3-ethoxy-1^1-(2-isopropoxyethyl)-10,10-dimethyl-5,7-dioxo-6^1,6^2,6^3,6^4,6^5,6^6-hexahydro-1^1H-8-oxa-2 (4,2)-thiazola-1 (5,3)-indola-6 (1,3)- pyridazinacycloundecaphane-12-yl)-6-((S)-1-methoxyethyl) pyridin-3-yl) piperazine-1-carboxylate” came in with a ring closure, isolated yield (cc_pd bond, Pd(dtbpf)Cl2/K3PO4, toluene/1,4-dioxane/H2O 3:1:1, 16.0 mM, 65.0 °C) of 44%.
Turning to “benzyl 4-((((6^3S,3S,4S,Z)-4-((tert-butoxycarbonyl) amino)-1^1-ethyl-1^2-(2-((S)-1-methoxyethyl) pyridin-3-yl)-10,10-dimethyl-5,7-dioxo-6^1,6^2,6^3,6^4,6^5,6^6-hexahydro-1^1H-8-oxa-2 (4,2)-thiazola-1 (5,3)-indola-6 (1,3)-pyridazinacycloundecaphane-3-yl)oxy) methyl)-3,6-dihydropyridine-1 (2H)-carboxylate”, the ring closure, isolated yield (cc_pd bond, Pd(dtbpf)Cl2/K3PO4, toluene/dioxane/H2O, 60.0 °C) turned out to be 32%.
As to “benzyl 5-((6^3S,3S,4S,Z)-4-((tert-butoxycarbonyl) amino)-3-ethoxy-1^1-ethyl-10, 10-dimethyl-5,7-dioxo-6^1,6^2,6^3,6^4,6^5,6^6-hexahydro-1^1H-8-oxa-2 (4,2)-thiazola-1 (5,3)-indola-6 (1,3)-pyridazinacycloundecaphane-12-yl)-6-((S)-1-methoxyethyl)-3′, 6′-dihydro-[3,4′-bipyridine]-1′ (2′H)-carboxylate”, the ring closure, isolated yield (cc_pd bond, Pd(dtbpf)Cl2/K3PO4, toluene/1,4-dioxane/H2O 3:1:1, 40.7 mM, 70.0 °C) is 39%.
“tert-butyl ((2^2R,6^3S,4S)-1^1-ethyl-1^2-(2-((S)-1-methoxyethyl) pyridin-3-yl)-22-(methoxymethyl)-10,10-dimethyl-5,7-dioxo-2^1,2^2,2^3,2^6,6^1,6^2,6^3,6^4,6^5,6^6-decahydro-1^1H-8-oxa-1 (5,3)-indola-6 (1,3)-pyridazina-2 (5,1)-pyridinacycloundecaphane-4-yl) carbamate” gave a ring closure, isolated yield (cc_pd bond, Pd(dppf)Cl2/K3PO4, toluene/dioxane/H2O, […], 70.0 °C) of 30%.
For “tert-butyl ((6^3S,3S,4S,Z)-3-(2,2-difluoroethoxy)-1^1-ethyl-1^2-(2-((S)-1-methoxyethyl) pyridin-3-yl)-10,10-dimethyl-5,7-dioxo-6^1,6^2,6^3,6^4,6^5,6^6-hexahydro-1^1H-8-oxa-2 (4,2)-thiazola-1 (5,3)-indola-6 (1,3)-pyridazinacycloundecaphane-4-yl) carbamate”, the ring closure, isolated yield (cc_pd bond, Pd(dtbpf)Cl2/K3PO4, toluene/dioxane/H2O, 10.0 mM, 60.0 °C) amounted to 59%.
As to “tert-butyl ((6^3S,3S,4S,Z)-3-ethoxy-1^1-ethyl-1^2-(2-((S)-1-methoxyethyl) pyridin-3-yl)-10, 10-dimethyl-5,7-dioxo-6^1,6^2,6^3,6^4,6^5,6^6-hexahydro-1^1H-8-oxa-2 (4,2)-thiazola-1 (5,3)-indola-6 (1,3)-pyridazinacycloundecaphane-4-yl) carbamate”, the ring closure, isolated yield (cc_pd bond, Pd(dtbpf)Cl2/K3PO4, toluene/dioxane/H2O, 26.7 mM, 60.0 °C) turned out to be 31%.
Molecule “tert-butyl ((6^3S,4S)-2^3-((tert-butyldiphenylsilyl)oxy)-1^1-ethyl-1^2-(2-((S)-1-methoxyethyl) pyridin-3-yl)-10,10-dimethyl-5,7-dioxo-2^1,2^2,2^3,2^6,6^1,6^2,6^3,6^4,6^5,6^6-decahydro-1^1H-8-oxa-1 (5,3)-indola-6 (1,3)- pyridazina-2 (5,1)-pyridinacycloundecaphane-4-yl) carbamate” showed a ring closure, isolated yield (cc_pd bond, Pd(dppf)Cl2/K2CO3, toluene/1,4-dioxane/H2O 3:1:1, 20.0 mM, 65.0 °C) of 42%.
“tert-butyl ((6^3S,4S)-25-(difluoromethyl)-1^1-ethyl-1^2-(2-((S)-1-methoxyethyl) pyridin-3-yl)-10,10-dimethyl-5,7-dioxo-6^1,6^2,6^3,6^4,6^5,6^6-hexahydro-1^1H-8-oxa-1 (5,3)-indola-6 (1,3)-pyridazina-2 (1,3)-benzenacycloundecaphane-4-yl) carbamate”: the ring closure, isolated yield (ester bond, EDCI/HOBt/DIEA, DCM) is 51%.
Under “cc_pd bond, XPhos Pd G3/XPhos/K3PO4, dioxane/H2O 5:1, 55.0 mM, 70.0 °C”, “tert-butyl ((6^3S,4S,Z)-1^1-ethyl-1^2-(2-((S)-1-methoxyethyl) pyridin-3-yl)-10,10-dimethyl-5,7-dioxo-6^1,6^2,6^3,6^4,6^5,6^6-hexahydro-1^1H-8-oxa-2 (2,4)-oxazola-1 (5,3)-indola-6 (1,3)-pyridazinacycloundecaphane-4-yl) carbamate” displayed a ring closure, isolated yield of 56%.
Consider “tert-butyl ((6^3S,4S,Z)-1^1-ethyl-1^2-(2-((S)-1-methoxyethyl) pyridin-3-yl)-21, 10, 10-trimethyl-5,7-dioxo-6^1,6^2,6^3,6^4,6^5,6^6-hexahydro-11H,21H-8-oxa-1 (5,3)-indola-6 (1,3)-pyridazina-2 (5,3)-triazolacycloundecaphane-4-yl) carbamate”, for which the ring closure, isolated yield (cc_pd bond, XPhos Pd G3/XPhos/K3PO4, dioxane/H2O 5:1, 71.7 mM, 75.0 °C) was determined as 56.8%.
